Assay type in all cases: biochemical
Test [1] deals with Ostreococcus tauri BioDA A374D. Nature of the test: BioDA enzyme activity with DMSO or herbicide in vitro. The source says: (§1) A pet-24 plasmid containing a DNA sequence encoding each identified variant mutant of BIO3-BIO1 derived from Arabidopsis thaliana from example 5 above, as shown in Table 13 below and as shown in full in SEQ ID NOs: 15 to 155, codon-optimised for expression in E. coli, with an N-terminal 6×His-tag and thrombin cleavage site and under control of a T7 promoter, and was synthesised by Twist Bioscience, in a similar manner to SEQ ID NO:311. These plasmids were then expressed in E. coli BL21 (DE3) bioA with 50 μg/mL kanamycin and 25 μg/mL chloramphenicol selection. Overnight cultures grown at 37° C. were used to inoculate 8×500 mL AIM in shake flasks at a ratio of 1:100. Cultures were grown at 37° C., 200 rpm for 3.5 hours and then overnight at 20° C. Cells were harvested by centrifugation for 30 minutes at 10 000 g. Cells were stored at −80° C. until extraction. 30 g of cell pellet from was thawed in 120 mL of IMAC buffer A (20 mM HEPES pH7.5, 25 mM imidazole, 500 mM sodium chloride, 0.15 mM pyridoxal phosphate, 0.5 mM TCEP, 1× complete Protease Inhibitor Tablet (Roche)). The resuspension was passed through a cell disrupter at 18 000 PSI and centrifuged at 50 000 g for 25 minutes at 4° C. The His-tagged BIO3-BIO1 protein was purified from the extract supernatant on an AKTA avant chromatography system (Cytiva) using a HisTrap FF column and eluted in IMAC buffer B ((20 mM HEPES pH7.5, 500 mM imidazole, 500 mM sodium chloride, 0.15 mM pyridoxal phosphate, 0.5 mM TCEP) followed by SEC using a HiLoad 26/60 Superdex200 column in SEC buffer (25 mM HEPES pH7.5, 150 mM sodium chloride, 0.15 mM pyridoxal phosphate, 0.5 mM TCEP). Protein concentration was measured and calculated using the absorbance at 280 nm. Extracts were diluted 1 in 4 and 10 uL was analysed by SDS PAGE.
(§2) To measure BIO3-BIO1 mutant enzyme activity in the presence of herbicide, herbicides were incubated with 20 μL of enzyme mix (100 mM EPPS pH 8.6, 0.1 mM pyridoxal phosphate, 0.1 mg/mL BSA, 50 nM BIO3-BIO1 enzyme) for 10 minutes at 20° C. in a well of a 96-well half-area black plate, followed by the addition of 20 μL of substrate mix (final concentration of 100 mM EPPS pH 8.6, 0.1 mM pyridoxal phosphate, 0.1 mg/mL BSA, 100 μM spermidine, 20 μM KAPA, 100 mM NaCO3) and further incubation for 75 minutes at 20° C. The reaction was terminated by the addition of 50 μL of derivatisation mix (final concentration of 250 mM borate NaOH pH 9.4, 3.6 mM o-phthalaldehyde, 7 mM β-mercaptoethanol, 17% (v/v) ethanol, 3.6% (v/v) methanol). The fluorescent product produced by the reaction of DAPA with o-phthalaldehyde and 7 mM β-mercaptoethanol was measured at 470 nm after excitation at 410 nm. The percentage inhibition was calculated as the activity in the presence of one of three concentrations of each herbicide compound A to M (note that the compounds labelled as A to M are identified hereinabove in the relevant section of the description) as a percentage of the activity in DMSO (Table 12 and 13). The percentage activity versus WT was also calculated and is shown in Table 13 and 14 (NT indicates mutation not tested in table 13, note that these mutations are tested at different compound concentrations for compounds L, M and C, and the results are shown in table 14).
(§3) The activity of various wild-type BioDA and variant enzymes was also tested when treated with DMSO or herbicide in vitro.
(§4) Protein of Schizosaccharomyces japonicus BioDA (SEQ ID NO:13), Nannochloropsis gaditana BioDA (SEQ ID NO:3), Selaginella moellendorffii BioDA (SEQ ID NO:319), Quercus robur BioDA (SEQ ID NOA11), Ostreococcus tauri BioDA (SEQ ID NO:9), and the variants of Ostreococcus tauri BioDA A374D, F332A and P407A (SEQ ID Nos:321-323) was prepared using the method in Example 6. BioDA enzyme activity in the presence of herbicide or DMSO in vitro for each of the proteins was assayed according to the enzyme assay method above. The results are shown in Table 26 provided below in the “TABLES” section.

Test [2] relates to Ostreococcus tauri BioDA F332A. The description is as above.
Text: as §1, §2, §3, §4

Test [3] relates to Ostreococcus tauri BioDA P407A. Described as above.
Text: as §1, §2, §3, §4

Test [4] deals with T1, Arabidopsis thaliana BIO3-BIO1 (BioDA) mutants (Arabidopsis thaliana, UniProt B0F481, A609I).
T1 construct: with the predicted N-terminal mitochondrial transit peptide removed; 6xHis-tag (N); thrombin cleavage site (N); made in house; host or cells: E. coli BL21 (DE3) bioA
Nature of the test: BIO3-BIO1 mutant enzyme activity in the presence of herbicide, percentage inhibition (fluorometric DAPA assay). To be noted: read-out: percentage inhibition. In short, it runs like this: (§5)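 His-tagged Arabidopsis BIO3-BIO1 mutants, expressed in E. coli and purified by IMAC and SEC, were preincubated at 50 nM with herbicide for 10 min at 20 °C in EPPS pH 8.6 with pyridoxal phosphate. Reaction with 100 μM spermidine and 20 μM KAPA ran 75 min at 20 °C; DAPA was derivatised with o-phthalaldehyde and read at ex 410/em 470 nm. […].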

Test [5] concerns the target T2, Arabidopsis thaliana BIO3-BIO1 (BioDA) mutants (Arabidopsis thaliana, UniProt B0F481, Q517T).
T2 construct: with the predicted N-terminal mitochondrial transit peptide removed; 6xHis-tag (N); thrombin cleavage site (N); made in house; host or cells: E. coli BL21 (DE3) bioA
The test is described as above. To be noted: read-out: percentage inhibition. In short, it runs like this:
as §5

In test [6] the target is T3, Arabidopsis thaliana BIO3-BIO1 (BioDA) mutants (Arabidopsis thaliana, UniProt B0F481, R790C).
T3 construct: with the predicted N-terminal mitochondrial transit peptide removed; 6xHis-tag (N); thrombin cleavage site (N); made in house; host or cells: E. coli BL21 (DE3) bioA
The description is as above. To be noted: read-out: percentage inhibition. In short, it runs like this: as §5

In test [7] the target is T4, Arabidopsis thaliana BIO3-BIO1 (BioDA) mutants (Arabidopsis thaliana, UniProt B0F481, R797Q).
T4 construct: with the predicted N-terminal mitochondrial transit peptide removed; 6xHis-tag (N); thrombin cleavage site (N); made in house; host or cells: E. coli BL21 (DE3) bioA
Described as above. To be noted: read-out: percentage inhibition. The procedure, abridged: as §5

For test [8], the target named is T5, Arabidopsis thaliana BIO3-BIO1 (BioDA) mutants (Arabidopsis thaliana, UniProt B0F481, S509F).
T5 construct: with the predicted N-terminal mitochondrial transit peptide removed; 6xHis-tag (N); thrombin cleavage site (N); made in house; host or cells: E. coli BL21 (DE3) bioA
The test is described as above. To be noted: read-out: percentage inhibition. In short, it runs like this: as §5

For test [9], the target named is T6, Arabidopsis thaliana BIO3-BIO1 (BioDA) mutants (Arabidopsis thaliana, UniProt B0F481, S509K).
T6 construct: with the predicted N-terminal mitochondrial transit peptide removed; 6xHis-tag (N); thrombin cleavage site (N); made in house; host or cells: E. coli BL21 (DE3) bioA
Described as above. To be noted: read-out: percentage inhibition. In short, it runs like this:
as §5

What is called inhibition is the percentage by which the read-out fell short of the control.

T5 sequence (B0F481 23-833 S509F): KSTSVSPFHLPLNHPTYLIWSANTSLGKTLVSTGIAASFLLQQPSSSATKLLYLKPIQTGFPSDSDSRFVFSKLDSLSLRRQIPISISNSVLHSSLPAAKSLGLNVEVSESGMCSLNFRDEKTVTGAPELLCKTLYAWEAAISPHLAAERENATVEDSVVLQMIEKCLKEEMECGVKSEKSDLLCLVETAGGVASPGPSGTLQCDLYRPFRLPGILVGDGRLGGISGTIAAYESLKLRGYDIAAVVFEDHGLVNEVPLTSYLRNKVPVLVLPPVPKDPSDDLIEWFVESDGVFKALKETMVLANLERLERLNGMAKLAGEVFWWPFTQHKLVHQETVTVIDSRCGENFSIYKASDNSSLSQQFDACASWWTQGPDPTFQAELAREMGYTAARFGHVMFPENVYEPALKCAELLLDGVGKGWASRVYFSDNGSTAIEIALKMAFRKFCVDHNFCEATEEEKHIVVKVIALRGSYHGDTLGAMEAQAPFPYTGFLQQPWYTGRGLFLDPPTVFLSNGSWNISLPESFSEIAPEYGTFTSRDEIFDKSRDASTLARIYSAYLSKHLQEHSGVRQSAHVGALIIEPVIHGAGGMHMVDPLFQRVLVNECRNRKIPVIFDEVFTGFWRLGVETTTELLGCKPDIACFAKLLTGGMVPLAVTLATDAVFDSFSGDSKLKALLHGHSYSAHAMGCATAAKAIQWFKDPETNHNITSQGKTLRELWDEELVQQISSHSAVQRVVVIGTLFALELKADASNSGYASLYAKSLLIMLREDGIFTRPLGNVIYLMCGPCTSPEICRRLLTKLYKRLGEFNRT
T1 sequence (B0F481 23-833 A609I): as the sequence (B0F481 23-833 S509F) above, with F487S, A587I counted along it
T6 sequence (B0F481 23-833 S509K): as the sequence (B0F481 23-833 S509F) above, with F487K counted along it
T3 sequence (B0F481 23-833 R790C): as the sequence (B0F481 23-833 S509F) above, with F487S, R768C counted along it
T4 sequence (B0F481 23-833 R797Q): as the sequence (B0F481 23-833 S509F) above, with F487S, R775Q counted along it
T2 sequence (B0F481 23-833 Q517T): as the sequence (B0F481 23-833 S509F) above, with F487S, Q495T counted along it

With `CCn1c(C)c(-c2cc(OC(F)(F)F)ccc2Cl)c(=O)c(C(=O)O)c1-c1ccc(Cl)c(Cl)c1` [Compound D, 5-[2-chloro-5-(trifluoromethoxy)phenyl]-2-(3,4-dichlorophenyl)-1-ethyl-6-methyl-4-oxo-pyridine-3-carboxylic acid], the “% Inhibition relative to DMSO treatment” value in test [1] (0.5 μM) is 82%; in test [1] (5 μM), 95%; in test [2] (0.5 μM) it was 0%; in test [2] (5 μM) it was 7%; in [3] (0.5 μM), 4%; in test [3] (5 μM), 26%.
As for `CCOC(=O)c1nn(-c2ccc3c(c2)OC(F)(F)C(F)(F)O3)c2cccc(C(C)=O)c2c1=O` [Compound A, ethyl 5-acetyl-4-oxo-1-(2,2,3,3-tetrafluoro-1,4-benzodioxin-6-yl)cinnoline-3-carboxylate], the inhibition at 1 µM in [4] came out at 24%; in test [5], 46%; in test [6] it was 2%; in test [7], 35%; in test [8], 6%; in test [9], 0%.
For `CCn1c(-c2ccc(Cl)c(Cl)c2)c(C(=O)O)c(=O)c2cc(F)ccc21` [Compound M, 2-(3,4-dichlorophenyl)-1-ethyl-6-fluoro-4-oxo-quinoline-3-carboxylic acid], the inhibition at 0.2 µM in [4] came to 2%; in [5], 14%; in [6] it was 0%; in test [7] it was 0%; in test [8], 19%; in [9], 41%. Also, the inhibition at 1 µM in test [4] is 0%; in test [5], 39%; in test [6], 9%; in test [7] it was 5%; in test [8], 58%; in test [9], 77%. Also, the inhibition at 5 µM amounted to 78% in test [4]; 71% in [5]; 49% in [6]; 30% in test [7]; 89% in test [8]; 90% in [9]. For the same compound, the “% Inhibition relative to DMSO treatment” value is 94% in test [1] (31 μM); 93% in test [1] (500 μM); 7% in test [2] (31 μM); 46% in test [2] (500 μM); 37% in test [3] (31 μM); 92% in test [3] (500 μM).
As to `CC(O)C(N)CCCCC(=O)O.Cl` (stereo not drawn) [Compound B, [5-carboxy-1-(1-hydroxyethyl)pentyl]ammonium chloride], the “% Inhibition relative to DMSO treatment” value in [1] (200 μM) is on record as 95%; in test [2] (200 μM) it was 66%; in test [3] (200 μM), 46%.
For `CCn1c(Cn2ccc(C(F)(F)F)n2)cc(=O)c(C(=O)O)c1-c1ccc(Cl)c(Cl)c1` [Compound L, 2-(3,4-dichlorophenyl)-1-ethyl-4-oxo-6-[[3-(trifluoromethyl)pyrazol-1-yl]methyl]pyridine-3-carboxylic acid], the inhibition at 0.01 µM in [4] stood at 29%. In addition, the inhibition at 0.075 µM in test [4] was 20%. Moreover, in test [4], the inhibition at 0.5 µM amounted to 0%. Besides, the “% Inhibition relative to DMSO treatment” value in test [1] (31 μM) came out at 98%; in [1] (500 μM), 93%; in [2] (31 μM) it was 4%; in [2] (500 μM) it was 53%; in test [3] (31 μM) it was 58%; in test [3] (500 μM), 94%.
Regarding `CCn1c(C)c(-c2ccc(F)cc2F)c(=O)c(C(=O)O)c1-c1ccc(Cl)c(Cl)c1` [Compound C, 2-(3,4-dichlorophenyl)-5-(2,4-difluorophenyl)-1-ethyl-6-methyl-4-oxo-pyridine-3-carboxylic acid], the inhibition at 0.2 µM is 7% in [4]; 14% in test [5]; 0% in [6]; 7% in test [7]; 24% in [8]; 54% in test [9]. Moreover, the inhibition at 1 µM is 24% in [4]; 47% in [5]; 11% in test [6]; 32% in test [7]; 82% in [8]; 88% in test [9]. Further, the inhibition at 5 µM turned out to be 42% in [4]; 73% in [5]; 62% in [6]; 52% in [7]; 98% in test [8]; 95% in [9].
